Measured values published in patent US20210179585A1, “CRYSTAL FORM OF ABEMACICLIB MESYLATE, PREPARATION METHOD THEREFOR AND PHARMACEUTICAL COMPOSITION THEREOF” (Hangzhou SoliPharma Co., Ltd., priority 2018, published 2021).

Assay: Form stability experiment of crystalline forms (XRD crystalline form test after storage)
Type: physicochemical
Details: for Test result after 30 day (XRD crystalline form): 20 mg placed at 60° C. or at room temperature under dry conditions for 30 days; for form stability on storage (form kept or changed, appearance): one month in a dry environment at room temperature and at 60° C.
Procedure: X-ray powder diffraction (XRPD): performed on a Bruker D8 Advance diffractometer. Samples are tested at room temperature. Testing conditions: 2θ scan range 3 to 40°, step size 0.02° and speed 0.2 s/step.
Form stability experiment of crystalline forms: Placed 20 mg abemaciclib mesylate in Preparation Example 1, abemaciclib mesylate Form 1, Form 2, Form 5, Form 6, and Form 8 of the present invention at 60° C. or at room temperature under dry conditions for 30 days, then carried out XRD crystalline form test.

Test result after 30 day (XRD crystalline form) (methanesulfonate) | form stability on storage (form kept or changed, appearance) (methanesulfonate) | SMILES | other results
Form 6 | kept its form unchanged | CCN1CCN(Cc2ccc(Nc3ncc(F)c(-c4cc(F)c5nc(C)n(C(C)C)c5c4)n3)nc2)CC1.CS(=O)(=O)O [Abemaciclib mesylate Form 6, N-(5-((4-ethylpiperazin-1-yl)methyl)pyridin-2-yl)-5-fluoro-4-(4-fluoro-1-isopropyl-2-methyl-1H-benzo[d]imidazol-6-yl)pyrimidin-2-amine methanesulfonate] | Test result after 30 day (XRD crystalline form) (listed as Form 6, methanesulfonate): still kept their original crystalline forms
Amorphous | – | CCN1CCN(Cc2ccc(Nc3ncc(F)c(-c4cc(F)c5nc(C)n(C(C)C)c5c4)n3)nc2)CC1.CS(=O)(=O)O [Abemaciclib mesylate, N-(5-((4-ethylpiperazin-1-yl)methyl)pyridin-2-yl)-5-fluoro-4-(4-fluoro-1-isopropyl-2-methyl-1H-benzo[d]imidazol-6-yl)pyrimidin-2-amine methanesulfonate] | form stability on storage (form kept or changed, appearance) (listed as amorphos abemaciclib mesylate, methanesulfonate): weak crystalline state and discoloration appeared; form stability on storage (form kept or changed, appearance) (listed as amorphous abemaciclib mesylate, methanesulfonate): weak crystalline state and discoloration appeared
Form 1 | kept its form unchanged | CCN1CCN(Cc2ccc(Nc3ncc(F)c(-c4cc(F)c5nc(C)n(C(C)C)c5c4)n3)nc2)CC1.CS(=O)(=O)O [Abemaciclib mesylate Form 1, N-(5-((4-ethylpiperazin-1-yl)methyl)pyridin-2-yl)-5-fluoro-4-(4-fluoro-1-isopropyl-2-methyl-1H-benzo[d]imidazol-6-yl)pyrimidin-2-amine methanesulfonate] | Test result after 30 day (XRD crystalline form) (listed as Form 1, methanesulfonate): still kept their original crystalline forms
Form 5 | kept its form unchanged | CCN1CCN(Cc2ccc(Nc3ncc(F)c(-c4cc(F)c5nc(C)n(C(C)C)c5c4)n3)nc2)CC1.CS(=O)(=O)O [Abemaciclib mesylate Form 5, N-(5-((4-ethylpiperazin-1-yl)methyl)pyridin-2-yl)-5-fluoro-4-(4-fluoro-1-isopropyl-2-methyl-1H-benzo[d]imidazol-6-yl)pyrimidin-2-amine methanesulfonate] | Test result after 30 day (XRD crystalline form) (listed as Form 5, methanesulfonate): still kept their original crystalline forms
Form 8 | kept its form unchanged | CCN1CCN(Cc2ccc(Nc3ncc(F)c(-c4cc(F)c5nc(C)n(C(C)C)c5c4)n3)nc2)CC1.CS(=O)(=O)O [Abemaciclib mesylate Form 8, N-(5-((4-ethylpiperazin-1-yl)methyl)pyridin-2-yl)-5-fluoro-4-(4-fluoro-1-isopropyl-2-methyl-1H-benzo[d]imidazol-6-yl)pyrimidin-2-amine methanesulfonate] | Test result after 30 day (XRD crystalline form) (listed as Form 8, methanesulfonate): still kept their original crystalline forms
Form 2 | kept its form unchanged | CCN1CCN(Cc2ccc(Nc3ncc(F)c(-c4cc(F)c5nc(C)n(C(C)C)c5c4)n3)nc2)CC1.CS(=O)(=O)O [Abemaciclib mesylate Form 2, N-(5-((4-ethylpiperazin-1-yl)methyl)pyridin-2-yl)-5-fluoro-4-(4-fluoro-1-isopropyl-2-methyl-1H-benzo[d]imidazol-6-yl)pyrimidin-2-amine methanesulfonate] | Test result after 30 day (XRD crystalline form) (listed as Form 2, methanesulfonate): still kept their original crystalline forms
